Results: BindingDB's records for doi:10.1016/j.bmcl.2003.09.069 (Sugen, 2003)
pIC50: −log10 of the molar value.

test: Inhibitory activity against cellular Src protein tyrosine kinase using the actin ring assay

SMILES	pIC50
CNS(=O)(=O)c1ccc2c(c1)/C(=C/c1[nH]c3c(c1CN1CCOCC1)CCCC3)C(=O)N2 [3-[1-(3-Morpholin-4-ylmethyl-4,5,6,7-tetrahydro-1H-indol-2-yl)-meth-(Z)-ylidene]-2-oxo-2,3-dihydro-1H-indole-5-sulfonic acid methylamide]	6.00
CCS(=O)(=O)c1ccc2c(c1)/C(=C/c1[nH]c3c(c1CCCN(C)C)CCCC3)C(=O)N2 [3-[1-[3-(3-Dimethylamino-propyl)-4,5,6,7-tetrahydro-1H-indol-2-yl]-meth-(Z)-ylidene]-5-ethanesulfonyl-1,3-dihydro-indol-2-one]	6.30
CNS(=O)(=O)c1ccc2c(c1)/C(=C/c1[nH]c3c(c1CCCN1CCOCC1)CCCC3)C(=O)N2 [3-[1-[3-(3-Morpholin-4-yl-propyl)-4,5,6,7-tetrahydro-1H-indol-2-yl]-meth-(Z)-ylidene]-2-oxo-2,3-dihydro-1H-indole-5-sulfonic acid methylamide]	7.00
CNS(=O)(=O)c1ccc2c(c1)/C(=C/c1[nH]c3c(c1CCCN1CCC(O)CC1)CCCC3)C(=O)N2 [3-[1-{3-[3-(4-Hydroxy-piperidin-1-yl)-propyl]-4,5,6,7-tetrahydro-1H-indol-2-yl}-meth-(Z)-ylidene]-2-oxo-2,3-dihydro-1H-indole-5-sulfonic acid methylamide]	6.05
CCS(=O)(=O)c1ccc2c(c1)/C(=C/c1[nH]c3c(c1CCC(N)=O)CCCC3)C(=O)N2 [3-{2-[5-Ethanesulfonyl-2-oxo-1,2-dihydro-indol-(3Z)-ylidenemethyl]-4,5,6,7-tetrahydro-1H-indol-3-yl}-propionamide]	< 5.00
CNS(=O)(=O)c1ccc2c(c1)/C(=C/c1[nH]c3c(c1CCC(N)=O)CCCC3)C(=O)N2 [3-{2-[5-Methylsulfamoyl-2-oxo-1,2-dihydro-indol-(3Z)-ylidenemethyl]-4,5,6,7-tetrahydro-1H-indol-3-yl}-propionamide]	< 5.00
CCS(=O)(=O)c1ccc2c(c1)/C(=C/c1[nH]c3c(c1CN1CCOCC1)CCCC3)C(=O)N2 [5-Ethanesulfonyl-3-[1-(3-morpholin-4-ylmethyl-4,5,6,7-tetrahydro-1H-indol-2-yl)-meth-(Z)-ylidene]-1,3-dihydro-indol-2-one]	5.30

Other lines, results leading:

pIC50	SMILES
5.52	CNS(=O)(=O)c1ccc2c(c1)/C(=C/c1[nH]c3c(c1CCCN1CCN(CCO)CC1)CCCC3)C(=O)N2 [3-[1-(3-{3-[4-(2-Hydroxy-ethyl)-piperazin-1-yl]-propyl}-4,5,6,7-tetrahydro-1H-indol-2-yl)-meth-(Z)-ylidene]-2-oxo-2,3-dihydro-1H-indole-5-sulfonic acid methylamide]
7.00	CNS(=O)(=O)c1ccc2c(c1)/C(=C/c1[nH]c3c(c1CCCN1CCN(C)CC1)CCCC3)C(=O)N2 [3-[1-{3-[3-(4-Methyl-piperazin-1-yl)-propyl]-4,5,6,7-tetrahydro-1H-indol-2-yl}-meth-(Z)-ylidene]-2-oxo-2,3-dihydro-1H-indole-5-sulfonic acid methylamide]
5.77	CCS(=O)(=O)c1ccc2c(c1)/C(=C/c1[nH]c3c(c1CCCN1CCN(CCO)CC1)CCCC3)C(=O)N2 [5-Ethanesulfonyl-3-[1-(3-{3-[4-(2-hydroxy-ethyl)-piperazin-1-yl]-propyl}-4,5,6,7-tetrahydro-1H-indol-2-yl)-meth-(Z)-ylidene]-1,3-dihydro-indol-2-one]
6.10	CCS(=O)(=O)c1ccc2c(c1)/C(=C/c1[nH]c3c(c1CCCN1CCC(O)CC1)CCCC3)C(=O)N2 [5-Ethanesulfonyl-3-[1-{3-[3-(4-hydroxy-piperidin-1-yl)-propyl]-4,5,6,7-tetrahydro-1H-indol-2-yl}-meth-(Z)-ylidene]-1,3-dihydro-indol-2-one]
5.00	CCS(=O)(=O)c1ccc2c(c1)/C(=C/c1[nH]c3c(c1CCCN1CCN(CC(=O)O)CC1)CCCC3)C(=O)N2 [[4-(3-{2-[5-Ethanesulfonyl-2-oxo-1,2-dihydro-indol-(3Z)-ylidenemethyl]-4,5,6,7-tetrahydro-1H-indol-3-yl}-propyl)-piperazin-1-yl]-acetic acid]
6.05	CCOC(=O)CN1CCN(CCCc2c(/C=C3\C(=O)Nc4ccc(S(=O)(=O)NC)cc43)[nH]c3c2CCCC3)CC1 [[4-(3-{2-[5-Methylsulfamoyl-2-oxo-1,2-dihydro-indol-(3Z)-ylidenemethyl]-4,5,6,7-tetrahydro-1H-indol-3-yl}-propyl)-piperazin-1-yl]-acetic acid ethyl ester]
< 5.00	CNS(=O)(=O)c1ccc2c(c1)/C(=C/c1[nH]c3c(c1CCCN1CCN(CC(=O)O)CC1)CCCC3)C(=O)N2 [[4-(3-{2-[5-Methylsulfamoyl-2-oxo-1,2-dihydro-indol-(3Z)-ylidenemethyl]-4,5,6,7-tetrahydro-1H-indol-3-yl}-propyl)-piperazin-1-yl]-acetic acid]
